Data: publication PMC10638440, “Structural basis of bile salt extrusion and small-molecule inhibition in human BSEP” (Nature Communications, 2023)

What was measured:
BSEP [1] = target: T1, BSEP (Homo sapiens, UniProt O95342); experiment: cryo-EM structure of vanadate-trapped BSEP at […] Å; assay type: binding; parameters: gene ABCB11; full-length wild-type, nanodisc-reconstituted
BSEP [2] = target: T1, BSEP; parameters: gene ABCB11
BSEPE1244Q = target: T2, BSEPE1244Q (Homo sapiens, UniProt O95342, E1244Q); experiment: cryo-EM structure at […] Å; assay type: binding
T2 construct: gene ABCB11; full-length, nanodisc-reconstituted

BSEP N996A = target: T3, BSEP N996A (Homo sapiens, UniProt O95342, N996A); experiment: GBM-stimulated ATPase activity ([…] GBM); assay type: biochemical
T3 construct: gene ABCB11; full-length
T3 sequence (O95342 whole entry N996A): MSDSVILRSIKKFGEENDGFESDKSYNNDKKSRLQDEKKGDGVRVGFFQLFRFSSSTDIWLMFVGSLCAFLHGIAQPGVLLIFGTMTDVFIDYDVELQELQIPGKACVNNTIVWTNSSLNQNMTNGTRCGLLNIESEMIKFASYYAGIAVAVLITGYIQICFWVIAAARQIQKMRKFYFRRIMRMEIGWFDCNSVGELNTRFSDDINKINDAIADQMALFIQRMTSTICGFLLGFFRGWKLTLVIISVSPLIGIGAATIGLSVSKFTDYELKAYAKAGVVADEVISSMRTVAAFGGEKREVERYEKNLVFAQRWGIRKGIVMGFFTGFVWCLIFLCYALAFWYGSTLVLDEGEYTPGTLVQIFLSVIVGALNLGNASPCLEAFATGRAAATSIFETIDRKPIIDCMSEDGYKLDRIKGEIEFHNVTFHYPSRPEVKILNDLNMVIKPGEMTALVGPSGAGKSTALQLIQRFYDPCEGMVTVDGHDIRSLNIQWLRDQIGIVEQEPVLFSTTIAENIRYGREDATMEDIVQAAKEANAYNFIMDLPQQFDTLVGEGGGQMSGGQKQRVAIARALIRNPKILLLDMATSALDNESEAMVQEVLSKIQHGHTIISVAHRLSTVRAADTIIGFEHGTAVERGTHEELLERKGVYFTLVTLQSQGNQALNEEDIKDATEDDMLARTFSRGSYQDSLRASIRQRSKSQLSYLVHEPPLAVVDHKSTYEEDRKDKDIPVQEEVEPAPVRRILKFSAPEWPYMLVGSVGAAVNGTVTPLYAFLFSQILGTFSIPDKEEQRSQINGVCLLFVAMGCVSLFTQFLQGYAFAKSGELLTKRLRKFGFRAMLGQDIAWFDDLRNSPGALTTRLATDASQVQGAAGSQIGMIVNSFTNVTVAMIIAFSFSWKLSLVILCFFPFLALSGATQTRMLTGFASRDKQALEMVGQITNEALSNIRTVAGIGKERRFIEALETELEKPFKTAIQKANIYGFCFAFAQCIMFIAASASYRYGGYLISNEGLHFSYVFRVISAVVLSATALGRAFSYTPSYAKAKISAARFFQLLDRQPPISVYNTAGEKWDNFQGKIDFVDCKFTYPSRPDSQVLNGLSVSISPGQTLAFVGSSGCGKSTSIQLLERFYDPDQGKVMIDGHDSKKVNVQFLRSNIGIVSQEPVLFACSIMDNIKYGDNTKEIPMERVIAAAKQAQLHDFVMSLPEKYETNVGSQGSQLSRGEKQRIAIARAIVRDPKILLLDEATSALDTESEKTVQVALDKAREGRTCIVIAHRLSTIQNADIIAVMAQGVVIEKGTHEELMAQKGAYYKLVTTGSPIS

T1 sequence (O95342 whole entry): as the sequence (O95342 whole entry N996A) above, with A996N counted along it
T2 sequence (O95342 whole entry E1244Q): as the sequence (O95342 whole entry N996A) above, with A996N, E1244Q counted along it

For `Nc1ncnc2c1ncn2[C@@H]1O[C@H](COP(=O)(O)OP(=O)(O)O)[C@@H](O)[C@H]1O` [ADP], the “cryo-EM structure of vanadate-trapped BSEP at 2.8 Å” value (BSEP [1]) was “trapping ADP and preventing its release from NBS2”.

`Nc1ncnc2c1ncn2[C@@H]1O[C@H](CO[P@@](=O)(O)O[P@](=O)(O)OP(=O)(O)O)[C@@H](O)[C@H]1O` [ATP] was tested, and the Km (BSEP [2]) was 207 µM and the “cryo-EM structure at 3.0 Å” value (BSEPE1244Q) was “We observed two distinct EM densities in the two NBSs, each corresponding to an ATP molecule”.

For `COc1ccc(Cl)cc1C(=O)NCCc1ccc(S(=O)(=O)NC(=O)NC2CCCCC2)cc1` [GBM, glibenclamide], the “GBM-stimulated ATPase activity (300 μM GBM)” value (BSEP N996A) was “N996A and S1022F exhibit increased basal ATPase activity compared to the wild-type BSEP, and their activity is stimulated by GBM”.
